Reference: publication PMC9293909 (Nature Communications, 2022)
“And” between values parts separate entries of the source, which are not always exact repeats. Equal values may be shown once. Read-outs that look alike come from different tables or passages of the source.

Assays:
hA1R:Gob = hA1R:Gob (Homo sapiens, UniProt P30542); test: TRUPATH G protein dissociation BRET assay, Gob; format: cell-based; parameters: cDNA resource centre (pcDNA3.1-A1R); settings: for activation of Gob vs Goa: TRUPATH assay; for EC50: Fig2h
Chain of hA1R:Gob (P09471 2-354 isoform P09471-2 partner limits assumed, one chain of several): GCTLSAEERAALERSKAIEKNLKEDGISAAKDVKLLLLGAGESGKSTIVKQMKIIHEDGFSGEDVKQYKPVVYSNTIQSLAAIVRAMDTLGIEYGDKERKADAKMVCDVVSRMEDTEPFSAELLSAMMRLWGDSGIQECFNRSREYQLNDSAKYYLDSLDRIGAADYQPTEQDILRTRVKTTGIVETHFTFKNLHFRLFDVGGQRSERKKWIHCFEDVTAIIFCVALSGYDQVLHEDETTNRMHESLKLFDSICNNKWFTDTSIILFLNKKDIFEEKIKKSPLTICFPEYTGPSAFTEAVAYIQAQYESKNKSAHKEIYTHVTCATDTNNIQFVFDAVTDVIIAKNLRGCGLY
Chain of hA1R:Gob (P16520 whole entry partner, one chain of several): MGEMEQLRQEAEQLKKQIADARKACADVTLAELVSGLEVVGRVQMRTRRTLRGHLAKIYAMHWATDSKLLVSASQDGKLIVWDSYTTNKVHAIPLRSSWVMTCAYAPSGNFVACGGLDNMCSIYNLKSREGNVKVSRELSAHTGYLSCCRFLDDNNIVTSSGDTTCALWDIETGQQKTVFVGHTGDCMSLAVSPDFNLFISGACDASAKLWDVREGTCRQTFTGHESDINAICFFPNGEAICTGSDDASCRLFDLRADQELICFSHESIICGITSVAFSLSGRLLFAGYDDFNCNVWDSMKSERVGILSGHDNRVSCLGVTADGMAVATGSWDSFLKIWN
Chain of hA1R:Gob (Q9UK08 1-67 partner limits assumed, one chain of several): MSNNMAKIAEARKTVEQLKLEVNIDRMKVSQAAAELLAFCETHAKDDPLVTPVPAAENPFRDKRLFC
Experimental: Cells were plated in a density of 1,500,000 cells/well in a 6-well plate and grown in DMEM /F-12 GlutaMAX™ media (Thermo Fisher Scientific, UK) supplemented with 10% FBS (Sigma, UK) and 1% AA (Sigma, UK). After being grown overnight, cells in each well were transfected using polyethylenimine 25 kDa (PEI, Polysciences Inc., Germany) at a 6:1 ratio of PEI to DNA, diluted in 150 mM NaCl. […] Gɑ (either Goa-RLuc8, or Gob-RLuc8), Gβ3 and Gγ8-GFP2 constructs were purchased as part of the TRUPATH sensor kit from Addgene, pcDNA3.1-A1R was obtained from cDNA resource centre, and pcDNA3.1 (-) zeo was purchased from Invitrogen. After 24 h, cells were trypsinised and re-seeded onto poly-L-lysine (PLL)-coated white 96-well plates (Greiner, UK) at the density of 50,000 cells/well in a complete DMEM/F-12 medium. After grown overnight, the culture media was discarded and replaced with 80 μl assay buffer (1× Hank’s balanced salt solution (HBSS) with calcium, supplemented with 20 mM HEPES and 0.1% BSA at pH 7.4). The assay was started by adding 10 μl of coelenterazine 400a (Nanolight technology, USA) to a final concentration of 5 μM. The plates were then incubated in the dark for 5 min, prior to the addition of 10 μl compounds (in a range of 0.01 nM – 1 µM). In order to investigate the effect of interfering peptides on Goa and Gob activation, cells were transfected with the TRUPATH constructs for Goa and Gob with the A1R as described above. However, the vector was replaced by either interfering or scrambled peptides, as appropriate, with increasing concentration: 0, 100, and 400 ng and was complemented by pcDNA3.1(-) up to 400 ng. […] BRET signal was recorded for 30 min on a Mithras LB940 plate reader allowing sequential integration of signal detected from GFP2 and Rluc8.

rA3R = target: T1, rA3R (Rattus norvegicus, UniProt P28647); test: cAMP inhibition at rA3R (Flp-In-CHO); format: cell-based; settings: for Range rA3R: range of response as percentage of response to 10 μM forskolin
T1 construct: expressed in transfected cells; host or cells: Flp-In-CHO (ThermoFisher R75807), pcDNA5/FRT
T1 sequence (P28647 1-320): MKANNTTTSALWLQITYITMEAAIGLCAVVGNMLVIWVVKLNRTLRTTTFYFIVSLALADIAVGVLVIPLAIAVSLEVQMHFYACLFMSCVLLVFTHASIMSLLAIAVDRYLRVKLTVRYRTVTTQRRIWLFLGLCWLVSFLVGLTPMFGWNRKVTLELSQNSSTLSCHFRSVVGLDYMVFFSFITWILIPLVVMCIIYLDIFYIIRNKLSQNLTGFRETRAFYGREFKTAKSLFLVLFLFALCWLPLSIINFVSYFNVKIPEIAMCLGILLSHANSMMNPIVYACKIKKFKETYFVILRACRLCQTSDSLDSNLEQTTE
Text: Cell lines were maintained using standard subculturing routines as guided by the European Collection of Cell Culture (ECACC) and checked annually for mycoplasma infection using an EZ-PCR mycoplasma test kit from Biological Industries (Kibbutz Beit-Haemek, Israel). To investigate the signalling properties of the rat A3R (rA3R) and mutants of the human A1R (hA1R), stable cell lines were generated using Flp-In-CHO cells (ThermoFisher - R75807). Untagged hA1R from sigNanoLuciferase (Nluc)-A1R in pcDNA3.1+ and untagged rA3R from sigNluc-A3R in pcDNA3.1 + (both gifted by Dr Steve Briddon (University of Nottingham)) were cloned into the pcDNA5/FRT expression vector (Thermo Fisher Scientific). Mutations within the hA1R were made using the QuikChange Lightening Site-Directed Mutagenesis Kit (Agilent Technologies) in accordance with the manufacturer’s instructions. Constructs for generating Goa/b interfering and scrambled peptides were generated by PCR and cloned into the BamHI/HindIII site of pcDNA3.1- as described in Gilchrist et al.[60],. Prior to the initiator codon a Kozak sequence was included for enhanced translation. The peptide sequences used were: for Goa […], for Gob […], and for the scrambled peptide […] was used. Constructs were sequenced to confirm fidelity. Flp-In-CHO cells were generated through co-transfection of the cell line with pcDNA5/FRT expression vector (Thermo Fisher Scientific) containing the WT or mutant hA1R, or rA3R, and the Flp recombinase expressing plasmid, pOG44 (Thermo Fisher Scientific), in accordance with the manufacturer’s instructions. […] CHO cell lines expressing ARs of interest (including mutants of the hA1R) were routinely cultured in Ham’s F-12 nutrient mix supplemented with 10% foetal bovine serum (FBS), at 37 °C with 5% CO2, in a humidified atmosphere.

hA1R = target: T2, hA1R (Homo sapiens, UniProt P30542); test: cAMP inhibition in CHO-K1-hA1R cells (forskolin co-stimulation); settings: for cAMP levels, co-stimulation with 1 μM forskolin and agonist (Fig. 1biii): individual repeats and mean; for Range hA1R: range of response as percentage of response to 10 μM forskolin
T2 sequence (P30542 1-326): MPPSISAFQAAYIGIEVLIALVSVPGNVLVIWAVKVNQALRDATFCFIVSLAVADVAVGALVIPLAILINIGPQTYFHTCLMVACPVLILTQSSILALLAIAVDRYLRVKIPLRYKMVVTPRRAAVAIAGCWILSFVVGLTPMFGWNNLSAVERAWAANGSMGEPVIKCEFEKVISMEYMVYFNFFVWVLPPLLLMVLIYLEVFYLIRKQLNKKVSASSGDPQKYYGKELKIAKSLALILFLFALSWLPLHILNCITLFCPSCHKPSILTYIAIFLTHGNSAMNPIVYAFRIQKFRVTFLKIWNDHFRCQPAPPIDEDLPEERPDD
Experimental: All in vitro cell signalling assay data was analysed using Prism 8.4 (Graphpad software, San Diego, CA), with all concentration-response curves being fitted using a 3 parameter logistic equation to calculate response range and IC50. All cAMP data was normalised to a forskolin concentration-response curve ran in parallel to each assay.

EC50 (hA1R:Gob; individual replicate, read-out: TRUPATH Gob potency (converted))	EC50 (hA1R:Gob; n 8, read-out: TRUPATH Gob potency, Average (converted))	IC50 (rA3R; half-maximal response, cAMP inhibition, read-out: pIC50 rA3R (converted))	IC50 (hA1R)	SMILES	activation of Gob vs Goa (hA1R:Gob)	Range rA3R (rA3R)	cAMP levels, co-stimulation with 1 μM forskolin and agonist (Fig. 1biii) (hA1R; Log [Agonist] -6)	cAMP levels, co-stimulation with 1 μM forskolin and agonist (Fig. 1biii) (hA1R; Log [Agonist] -7)	cAMP levels, co-stimulation with 1 μM forskolin and agonist (Fig. 1biii) (hA1R; Log [Agonist] -8)	cAMP levels, co-stimulation with 1 μM forskolin and agonist (Fig. 1biii) (hA1R; Log [Agonist] -9)	cAMP levels, co-stimulation with 1 μM forskolin and agonist (Fig. 1biii) (hA1R; Log [Agonist] -10)	cAMP levels, co-stimulation with 1 μM forskolin and agonist (Fig. 1biii) (hA1R; Log [Agonist] -11)	cAMP levels, co-stimulation with 1 μM forskolin and agonist (Fig. 1biii) (hA1R; Log [Agonist] -12)	cAMP levels, co-stimulation with 1 μM forskolin and agonist (Fig. 1biii) (hA1R; Log [Agonist] -13)	Range hA1R (hA1R)
				OC[C@H]1O[C@@H](n2cnc3c(NC4CCCC4)ncnc32)[C@H](O)[C@@H]1O [CPA, N^6-Cyclopentyladenosine]	equipotent activation of both Goa and Gob	68.79 ± 3.67%	40.1 and 40.118 and 40.1062 and 40.1555 and 40.1419 and 40.1089 and 40.1054 and 40.1072 and 40.1135 and 40.1134 and 40.1344	40.4 and 40.3687 and 40.2515 and 40.737 and 40.6042 and 40.2784 and 40.2436 and 40.2615 and 40.3242 and 40.3231 and 40.5303	42.9 and 42.7424 and 41.659 and 45.8766 and 44.7904 and 41.911 and 41.5838 and 41.7525 and 42.336 and 42.3262 and 44.1655	57.8 and 57.9585 and 52.2853 and 68.2239 and 65.3823 and 53.7555 and 51.8264 and 52.843 and 56.017 and 55.9674 and 63.4546	81.2 and 82.0022 and 77.8788 and 85.9249 and 85.1011 and 79.182 and 77.4265 and 78.3979 and 80.8371 and 80.8046 and 84.4497	88.4 and 88.5187 and 87.9157 and 89.0024 and 88.907 and 88.1183 and 87.8424 and 87.9978 and 88.3592 and 88.3546 and 88.8294	89.2835 and 89.2206 and 89.333 and 89.3233 and 89.2419 and 89.2129 and 89.2293 and 89.267 and 89.2665 and 89.3154 and 89.3	89.2835 and 89.2206 and 89.333 and 89.3	48.97 ± 0.7%
132 nM and 51.3 nM and 38 nM and 46.8 nM and 61.7 nM and 50.1 nM and 52.5 nM	57.5 nM	38.9 nM	0.832 nM	OC[C@H]1O[C@@H](n2cnc3c(N[C@@H]4CCC[C@H]4O)ncnc32)[C@H](O)[C@@H]1O [HOCPA, (2 R,3 R,4 S,5 R)−2-(6-{[(1 R,2 R)−2-hydroxycyclopentyl]amino}−9H-purin-9-yl)−5-(hydroxymethyl)oxolane-3,4-diol]	equipotent activation of both Goa and Gob	68.79 ± 3.70%									60.52 ± 1.5%
